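All cell lines were grown in 96-well plates and treated with compound for 48 hours. TGI is the concentration that stops growth completely.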
What was measured:
Assay in all cases: growth of human tumour cells (NCI), 48 h
[1] = system: 786-0 renal
[2] = system: A549 NSCLC
[3] = system: ACHN renal
[4] = system: BT-549 breast
[5] = system: CAKI-1 renal
[6] = system: CCRF-CEM leukemia
[7] = system: COLO 205 colon
[8] = system: DU-145 prostate
[9] = system: EKVX NSCLC
[10] = system: HCC-2998 colon
[11] = system: HCT-116 colon
[12] = system: HCT-15 colon
[13] = system: HL-60(TB) leukemia
[14] = system: HOP-62 NSCLC
[15] = system: HS 578T breast
[16] = system: HT29 colon
[17] = system: IGROV1 ovarian
[18] = system: KM12 colon
[19] = system: LOX IMVI melanoma
[20] = system: M14 melanoma
[21] = system: MALME-3M melanoma
[22] = system: MCF7 breast
[23] = system: MDA-MB-231 breast
[24] = system: MDA-MB-435
[25] = system: MDA-N
[26] = system: MOLT-4 leukemia
[27] = system: NCI-H226 lung
[28] = system: NCI-H23 lung
[29] = system: NCI-H460 lung
[30] = system: NCI-H522 lung
[31] = system: NCI/ADR-RES ovarian
[32] = system: OVCAR-3 ovarian
[33] = system: OVCAR-4 ovarian
[34] = system: OVCAR-5 ovarian
[35] = system: OVCAR-8 ovarian
[36] = system: PC-3 prostate
[37] = system: RPMI-8226 leukemia
[38] = system: SF-268 CNS
[39] = system: SF-295 CNS
[40] = system: SF-539 CNS
[41] = system: SK-MEL-2 melanoma
[42] = system: SK-MEL-28 melanoma
[43] = system: SK-MEL-5 melanoma
[44] = system: SK-OV-3 ovarian
[45] = system: SN12C renal
[46] = system: SNB-19 CNS
[47] = system: SNB-75 CNS
[48] = system: SR leukemia
[49] = system: SW-620 colon
[50] = system: T-47D breast
[51] = system: TK-10 renal
[52] = system: U251 CNS
[53] = system: UACC-257 melanoma
[54] = system: UACC-62 melanoma
[55] = system: UO-31 renal
[56] = system: A498 renal
[57] = system: HOP-92 NSCLC
[58] = system: K-562 leukemia
[59] = system: RXF 393 renal

## CCCCc1ccc(-n2sc3ncc([N+](=O)[O-])cc3c2=O)cc1
[1]
  TGI: 28.2 µM
[2]
  TGI: 27.3 µM
[3]
  TGI: 28 µM
[4]
  TGI: 33.9 µM
[5]
  TGI: 26.2 µM
[6]
  TGI: 32.4 µM
[7]
  TGI: 32.3 µM
[8]
  TGI: 57.9 µM
[9]
  TGI: 29.8 µM
[10]
  TGI: 27.6 µM
[11]
  TGI: 21 µM
[12]
  TGI: 28.4 µM
[13]
  TGI: 38 µM
[14]
  TGI: 36.7 µM
[15]
  TGI: 30.8 µM
[16]
  TGI: 26.7 µM
[17]
  TGI: 28.1 µM
[18]
  TGI: 25.4 µM
[19]
  TGI: 26.1 µM
[20]
  TGI: 43.7 µM
[21]
  TGI: 21.7 µM
[22]
  TGI: 40.5 µM
[23]
  TGI: 23.5 µM
[24]
  TGI: 52.3 µM
[25]
  TGI: 28 µM
[26]
  TGI: 53.7 µM
[27]
  TGI: 51.4 µM
[28]
  TGI: 24.1 µM
[29]
  TGI: 25.3 µM
[30]
  TGI: 9.36 µM
[31]
  TGI: 34.4 µM
[32]
  TGI: 46.1 µM
[33]
  TGI: 35.2 µM
[34]
  TGI: 40.6 µM
[35]
  TGI: 61 µM
[36]
  TGI: 18.7 µM
[37]
  TGI: 32.5 µM
[38]
  TGI: 37.1 µM
[39]
  TGI: 27 µM
[40]
  TGI: 39.7 µM
[41]
  TGI: 7.43 µM
[42]
  TGI: 50.7 µM
[43]
  TGI: 27.7 µM
[44]
  TGI: > 100 µM
[45]
  TGI: 32.7 µM
[46]
  TGI: 48.6 µM
[47]
  TGI: 57.2 µM
[48]
  TGI: 45.9 µM
[49]
  TGI: 35.9 µM
[50]
  TGI: 25.9 µM
[51]
  TGI: 61.9 µM
[52]
  TGI: 29.1 µM
[53]
  TGI: 50.9 µM
[54]
  TGI: 21.8 µM
[55]
  TGI: 35.5 µM

## O=C1CCCC(=O)N1n1c(Cc2ccccc2)n[nH]c1=O
[1]
  TGI: > 100 µM
[56]
  TGI: > 100 µM
[2]
  TGI: > 100 µM
[3]
  TGI: > 100 µM
[4]
  TGI: > 100 µM
[5]
  TGI: > 100 µM
[6]
  TGI: > 100 µM
[7]
  TGI: > 100 µM
[8]
  TGI: > 100 µM
[9]
  TGI: > 100 µM
[11]
  TGI: > 100 µM
[12]
  TGI: > 100 µM
[13]
  TGI: > 100 µM
[14]
  TGI: > 100 µM
[57]
  TGI: > 100 µM
[15]
  TGI: > 100 µM
[16]
  TGI: > 100 µM
[17]
  TGI: > 100 µM
[58]
  TGI: > 100 µM
[18]
  TGI: > 100 µM
[19]
  TGI: > 100 µM
[20]
  TGI: > 100 µM
[21]
  TGI: > 100 µM
[22]
  TGI: > 100 µM
[23]
  TGI: > 100 µM
[24]
  TGI: > 100 µM
[25]
  TGI: > 100 µM
[26]
  TGI: > 100 µM
[27]
  TGI: > 100 µM
[28]
  TGI: > 100 µM
[30]
  TGI: > 100 µM
[31]
  TGI: > 100 µM
[32]
  TGI: > 100 µM
[33]
  TGI: > 100 µM
[34]
  TGI: > 100 µM
[35]
  TGI: > 100 µM
[36]
  TGI: > 100 µM
[37]
  TGI: > 100 µM
[59]
  TGI: > 100 µM
[38]
  TGI: > 100 µM
[39]
  TGI: > 100 µM
[41]
  TGI: > 100 µM
[42]
  TGI: > 100 µM
[43]
  TGI: > 100 µM
[44]
  TGI: > 100 µM
[45]
  TGI: > 100 µM
[47]
  TGI: > 100 µM
[48]
  TGI: > 100 µM
[49]
  TGI: > 100 µM
[50]
  TGI: > 100 µM
[51]
  TGI: > 100 µM
[52]
  TGI: > 100 µM
[53]
  TGI: > 100 µM
[54]
  TGI: > 100 µM
[55]
  TGI: > 100 µM

Source: PubChem BioAssay (NCI)
